Where a name gives a salt, the structure may show the parent alone.

For orientation: IC50 means the midpoint of a concentration-inhibition curve. In general, ED50 refers to the midpoint of the dose-response relation. A lower ED50 goes with greater potency.

One test addresses Alpha1 receptor. As to the kind of experiment: In-Vitro Inhibition of Alpha1-Receptor Binding (3H-Prazosin). The conditions noted are these: 3H-Prazosin 0.5 nM, rat cortex, 25° C., 30 min; read-out: Receptor binding IC50 α1. The arrangement: species or system rat (male Wistar). Here is the method:
In-Vitro Inhibition of Alpha1 -Receptor Binding, Radioactive-labelled ligand ^3 H-Prazosin is incubated with isolated cell-membrane fragments at 25° C. for a given period of time. Following completed incubation, the incubate is filtered through GF/B filters, which are rinsed following filtration to remove unspecifically adhered radioactivity. As opposed to low- molecular compounds, membrane fragments are not rinsed through the filters, the radioactivity bound to the filters indicates the amount of ligand bound specifically as well as nonspecifically to the membranes. The procedure is performed in ice bath. Polytron kinematica is rinsed with milli-Q-H2 O before and after use. Male Wistar rats, 150-200 g are decapitated, cortex is removed quickly and weighed (approx. 500 mg). Cortex is transferred to a centrifuging vial containing 10 ml ice-cold D2 buffer. Homogenization applying polytron kinematica (homogenizer) setting 6 for 20 sec. The homogenizer is rinsed with 10 ml D2 buffer in another centrifuging vial. The 10 ml rinsing buffer is added to the tissue vial. Centrifugation at 18,000 rpm for 12 min. at 4° C. This is repeated once. Final pellet is added to 400×vol. of same buffer. (Ex. 500 mg cortex in 200 ml D2 buffer). Can be stored for 30 min. at 0° C. 2,000 μl tissue 25 μl ^3 H-Prazosin (0.5 nM) 25 μl test substance/H2 O/blind Phentolamine (10 μM) Incubation for 30 min. at 25° C. 10 ml of ice-cold 0.9% NaCl is added to the tubes and filtered through GF/B filters (use gloves). This procedure is repeated. Filters are placed in counting vials and 4 ml opti-flour is added (perform in fume cupboard, use gloves). Counting is performed at window 0-19 of the betacounter (Pachard). […] Further, the analytical site is cleaned carefully every day after use. Dissolved in H2 O, EtOH, MeOH or DMSO and further diluted in H2 O. […] Most stock solutions are stable at 4° C. Attention should, however, be paid to any precipitation, change in colour etc. Test-substance dilutions are always prepared fresh every day. When weighing out test substances, it is attempted to weigh out approx. 1 mg of substance. Less than 0.8 mg must never be weighed out and only infrequently more than 2 mg (for economy reasons) dependent, however, on conc./ass.

In the next test the target is T1, 5HT1A receptor (Rattus norvegicus, UniProt P19327).
T1 sequence (P19327 1-422): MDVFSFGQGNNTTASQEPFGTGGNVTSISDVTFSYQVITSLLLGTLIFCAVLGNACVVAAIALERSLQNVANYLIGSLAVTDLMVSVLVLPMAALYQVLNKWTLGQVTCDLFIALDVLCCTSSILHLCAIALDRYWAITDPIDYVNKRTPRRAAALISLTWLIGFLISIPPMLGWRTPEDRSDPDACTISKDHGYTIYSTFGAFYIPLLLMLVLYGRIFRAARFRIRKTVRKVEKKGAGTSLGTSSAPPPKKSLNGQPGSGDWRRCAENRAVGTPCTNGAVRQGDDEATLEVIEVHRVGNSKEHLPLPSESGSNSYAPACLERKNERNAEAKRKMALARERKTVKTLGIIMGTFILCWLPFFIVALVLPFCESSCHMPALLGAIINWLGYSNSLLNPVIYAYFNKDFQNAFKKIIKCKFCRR
The test can be described thus: In-Vitro inhibition of 5HT1A receptor binding (3H-8-OH-DPAT). The arrangement: species or system rat (male Wistar). The conditions noted are these: 3H-8-OH-DPAT 1 nM, rat frontal cortex and hippocampus, 37° C., 10 min. Here is the method: In-Vitro inhibition of 5HT1A receptor binding
Radioactive-labelled ligand ^3 H-80H-DPAT is incubated with isolated cell-membrane fragments at 37° C. for a given period of time. Following completed incubation, the incubate is filtered through GF/F filters which are rinsed after filtration to remove unspecifically adhered radioactivity. As opposed to low-molecular compounds, membrane fragments are not rinsed through the filters, the radioactivity bound to the filters indicates the amount of ligand bound specifically as well as nonspecifically to the membranes.
Male Wistar rats, 150-200 g are decapitated, and frontal cortex (approx. 200 mg) and hippocampus (approx. 70 mg) homogenized in 2×10 ml ice-cold DPAT buffer for 20 sec. applying polytron kinematica setting 6. Centrifuged at 20,000 rpm for 10 min. at 4° C. The pellet is transferred to 2×10 ml ice-cold DPAT buffer, homogenized for 20 sec. and preincubated for 10 min. at 37° C. Centrifuged at 20,000 rpm for 10 min. at 4° C. Final pellet added to 125×vol. of same buffer with 10 μM paragylin added (ex. 270 mg tissue in 33.75 ml DPAT buffer containing paragylin). Prepared fresh every day. Use within 30 minutes.
1,250 μl tissue 25 μl ^3 H-80H-DPAT (1 nM) 25 μl test substance/H2 O/blind serotonin (10 μM)
Incubation at 37° C. for 10 min.--at 10 sec. intervals. To the tubes is added 10 ml ice-cold 0.9% NaCl. Filtration through GF/F filters (use gloves). This procedure is repeated. Filters are placed in counting vials and 4 ml optiflow added (prepare in fume cupboard, use gloves). Counted at window 0-19 of the beta- counter (Pachard). Note that receptor box and lid are rinsed thoroughly in H2 O after use to avoid contamination. Further the analytical site is cleaned carefully every day.
Dissolved in H2 O, EtOH, MeOH or DMSO and further diluted in H2 O. The DPAT binding will stand concentrations of up to approx. 5% of these solvents without affecting the binding. Most stock solutions are stable at 4° C. Attention should, however, be paid to any precipitation, change in colour etc. Test-substance dilutions are always prepared fresh every day. When weighing out test substances, it is attempted to weigh out approx. 1 mg of substance. Less than 0.8 mg must never be weighed out and only infrequently more than 2 mg (for economy reasons) dependent, however on conc./assay.

The subject of test [1] is acetic acid-induced writhings in mice. As to the kind of experiment: Antagonism of Acetic Acid-Induced Writhings In Mice. The settings on record: Mus musculus, sc; s.c. 30 min before acetic acid 0.5 per cent i.p.; 50 per cent protection. It is filed as in vivo, mouse (NMRI). Here is the method: Antagonism of Acetic Acid-Induced Writhings In Mice
In mice i.p. injection of acetic acid induces a writhing syndrome which is antagonized by analgesics (Siegmund et al., 1957; Eckhardt et al., 1957).
Acetic acid 0.5 per cent is injected i.p. (0.15 ml/10 g body weight) to 6 mice (NMRI, either sex weighing 20-25 g) pretreated with physiological saline (controls) and to 6 mice pretreated with test substance. In the controls acetic acid induces a syndrome characterized by contraction of abdomen, turning of trunk and extension of hind limbs. Saline and test substances are administered s.c. 30 min. before acetic acid. The number of writhings is counted 5-15 min. after injection of acetic acid.
The activity is expressed as per cent protection: [formula]
The effect of active substances is evaluated by a dose response curve, log dose on the abscissa, and per cent protection on the ordinate. The potency is expressed as the dose (ED50 in mg/kg giving 50 per cent protection against writhings.
This test is used as a screening test for analgesics. Additional results from other screening tests are required to exclude active anti-writhing substances without analgesic effect.
A general note: An intraperitoneal irritant provokes the stretching counted in writhing tests.

Take `COc1ccc2cccc(N3CCN(CCCOC(=O)Nc4ccc5c(c4)OCO5)CC3)c2c1` [Example 34, 1-(7-Methoxy-1-naphthyl)-4-[3-(3,4-methylenedioxyphenylcarbamoyloxy)propyl]piperazine, HCl]: the IC50 on Alpha1 receptor turned out to be 144 nM; at 5HT1A receptor, 1.6 nM.

For `COc1cc(NC(=O)OCCCN2CCN(c3ccc(F)cc3)CC2)cc(OC)c1OC` [Example 8, 4-(4-Fluorophenyl)-1-[3-(3,4,5-trimethoxyphenylcarbamoyloxy)propyl]piperazine, hydrochloride], the IC50 is 61 nM at Alpha1 receptor and > 1000 nM at 5HT1A receptor.

On to `O=C(Nc1ccc2ncsc2c1)OCCCN1CCN(c2ccc(Cl)cc2)CC1` [Example 19, 4-(4-Chlorophenyl)-1-[3-(6-benzothiazolylcarbamoyloxy)propyl]piperazine, hydrochloride], for which the IC50 at Alpha1 receptor was 122 nM; on 5HT1A receptor, > 1000 nM.

For the molecule `COc1cc(NC(=O)OCCCN2CCN(c3ccccc3Cl)CC2)cc(OC)c1OC.Cl` [Example 3, 4-(2-Chlorophenyl)-1-[3-(3,4,5-trimethoxyphenylcarbamoyloxy)propyl]piperazine, hydrochloride], the concentration for half-maximal inhibition (IC50) was 45 nM at Alpha1 receptor and > 300 nM on 5HT1A receptor. The median effective dose (ED50) in test [1] stood at 12 mg/kg.

The record behind these values is US5246935A, “Piperazinyl derivatives and methods of treating central nervous system ailments relating to the 5-HT2 receptor system” (Novo Nordisk A/S, priority 1990, dated 1993).
